The target of assay [1] is T1, RMS3 (Pisum sativum, UniProt A0A109QYD3).
T1 sequence (A0A109QYD3 1-267): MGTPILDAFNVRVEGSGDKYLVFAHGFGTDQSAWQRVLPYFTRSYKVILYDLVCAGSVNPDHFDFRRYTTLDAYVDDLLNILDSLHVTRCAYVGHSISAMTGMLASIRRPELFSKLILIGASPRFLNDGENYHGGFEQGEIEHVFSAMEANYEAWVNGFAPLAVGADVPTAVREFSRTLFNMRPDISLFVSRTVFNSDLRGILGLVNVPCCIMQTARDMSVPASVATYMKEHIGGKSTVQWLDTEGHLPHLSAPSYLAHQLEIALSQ
In words: Intrinsic tryptophan fluorescence, apparent dissociation coefficient. The settings on record: apparent Kd from intrinsic fluorescence, mean ± SE of two replicates. The assay is classed as binding.

The target of assay [2] is T1, RMS3. The experiment in a line: Differential scanning fluorimetry. It counts as binding. The settings on record: DSF.
Assay [3] deals with T1, RMS3. In words: Competition test with. It counts as biochemical.

Four compounds from article PMC5030144 (Nature chemical biology, 2016) can be followed below.

In general, Ki refers to a measure of affinity in units of concentration, obtained from inhibition or displacement. High values mean a looser hold on the target, low ones a stronger hold on the target.

“And” between values parts separate entries of the source, which are not always exact repeats. Equal values may be shown once.

For `Cc1cc(=O)oc2c(F)c(O)c(F)cc12` [DiFMU, 6,8-difluoro-7-hydroxy-4-methylcoumarin], the Kd in assay [1] (Kd) is 20 µM and 19.9 µM. In addition, in assay [2], the “shift in RMS3 melting temperature (destabilization)” value (from here on “shift in RMS3 melting temperature”) is “small stabilization”.
As to `O=C1C=CC(OC=C2C(=O)OC3c4ccccc4CC23)O1` (racemic) [(±)-4’-desmethyl-2’-epi-GR24], the Kd in assay [1] stood at 296 ± 27.9 µM. Besides, the “shift in RMS3 melting temperature” value in assay [2] is reported as “no shift”.
As to `O=C1OC2c3ccccc3CC2/C1=C\O` (racemic) [(±)-ABC], the Kd in assay [1] was 271 ± 29.8 µM. Besides, in assay [3] (RMS3), the “mode of inhibition of (±)-GC242 hydrolysis” value is given as “competitive inhibitor”. In assay [3] (RMS3, competition test with (±)-GC242, mean ± SE of three replicates), this compound returned a Ki of 28.8 ± 17.6 µM. Further, the “shift in RMS3 melting temperature” value in assay [2] was “no shift”.
As to `CC1=C(C)C(OC=C2C(=O)OC3c4ccccc4CC23)OC1=O` (racemic) [(±)-3’-Me-GR24], the Kd in assay [1] worked out at 30.9 ± 5.2 µM.
